Broadly, the IC50 is the concentration that gives 50% inhibition. Low readings indicate higher potency, high ones lower potency.

For the experiment, the target named is T1, factor D (Homo sapiens, UniProt P00746).
T1 construct: made in house; host or cells: E. coli
T1 sequence (P00746 26-253): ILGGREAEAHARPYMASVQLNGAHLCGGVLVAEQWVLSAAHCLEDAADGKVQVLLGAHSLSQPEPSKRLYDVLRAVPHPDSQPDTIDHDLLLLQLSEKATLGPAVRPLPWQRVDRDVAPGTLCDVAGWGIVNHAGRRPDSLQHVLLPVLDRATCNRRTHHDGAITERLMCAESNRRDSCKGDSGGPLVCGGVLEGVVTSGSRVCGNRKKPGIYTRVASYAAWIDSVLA
As to the kind of experiment: factor D inhibition assay of Biological Example 2. It is filed as biochemical.
In turn, `NCc1cccc(-c2ccc(Cl)c(C(=O)Nc3ccccc3CC(=O)O)n2)c1` [Example 56-A, 2-(2-(6-(3-(Aminomethyl)phenyl)-3-chloropicolinamido)phenyl)acetic acid] had an IC50 of 107 nM. Compound `NCc1cccc(-c2ccc(-c3cccc(CN)c3)c(C(=O)Nc3ccccc3CC(=O)O)n2)c1` [Example 56-B, 2-(2-(3,6-bis(3-(Aminomethyl)phenyl)picolinamido)phenyl)acetic acid] had a half-maximal inhibitory concentration (IC50) of 117 nM. For `NCc1cccc(-c2cc(O)cc(C(=O)Nc3ccccc3CC(=O)O)c2)c1` [Example 59-C, 2-(2-(3′-(Aminomethyl)-5-hydroxy-[1,1′-biphenyl]-3-ylcarboxamido)phenyl)acetic acid], the half-inhibitory concentration (IC50) is 95 nM.

For the compound `NCc1cc(F)cc(-c2cc(O)cc(C(=O)Nc3ccccc3CC(=O)O)c2)c1` [Example 60, 2-(2-(3′-(Aminomethyl)-5′-fluoro-5-hydroxy-[1,1′-biphenyl]-3-ylcarboxamido)phenyl)acetic acid], the IC50 turned out to be 47 nM. The same measure for `NCc1cccc(-c2cc(OCc3ncccn3)cc(C(=O)Nc3ccccc3CC(=O)O)c2)c1` [Example 61-B, 2-(2-(3′-(Aminomethyl)-5-(pyrimidin-2-ylmethoxy)-[1,1′-biphenyl]-3-ylcarboxamido)phenyl)acetic acid]: 32 nM. Take `NCc1cccc(-c2cc(OCc3ccncc3)cc(C(=O)Nc3ccccc3CC(=O)O)c2)c1` [Example 62, 2-(2-(3′-(Aminomethyl)-5-(pyridin-4-ylmethoxy)-[1,1′-biphenyl]-3-ylcarboxamido)phenyl)acetic acid]: the concentration for half-maximal inhibition (IC50) turned out to be 54 nM. Compound `NCc1cc(F)cc(-c2cc(OCc3ccncc3)cc(C(=O)Nc3ccccc3CC(=O)O)c2)c1` [Example 65, 2-(2-(3′-(Aminomethyl)-5′-fluoro-5-(pyridin-4-ylmethoxy)-[1,1′-biphenyl]-3-ylcarboxamido)phenyl)acetic acid] returned an IC50 of 17 nM. In the case of `Cn1ccc(COc2cc(C(=O)Nc3ccccc3CC(=O)O)cc(-c3cccc(CN)c3)c2)n1` [Example 66, 2-(2-(3′-(Aminomethyl)-5-((1-methyl-1H-pyrazol-3-yl)methoxy)-[1,1′-biphenyl]-3-ylcarboxamido)phenyl)acetic acid] it was 33 nM. As to `CC(=O)Nc1cc(C(=O)Nc2ccccc2CC(=O)O)cc(-c2cc(F)cc(CN)c2)c1` [Example 67-B, 2-(2-(5-Acetamido-3′-(aminomethyl)-5′-fluoro-[1,1′-biphenyl]-3-ylcarboxamido)phenyl)acetic acid], 30 nM corresponded to half-maximal inhibition (IC50). The same measure for `CCOC(=O)Cc1ccccc1NC(=O)c1cc(NC(C)=O)cc(-c2cc(F)cc(CN)c2)c1` [Example 67-C, Ethyl 2-(2-(5-acetamido-3′-(aminomethyl)-5′-fluoro-[1,1′-biphenyl]-3-ylcarboxamido)phenyl)acetate]: 2930 nM. `NCc1cc(F)cc(-c2cc(OCc3ncccn3)cc(C(=O)Nc3ccccc3CC(=O)O)c2)c1` [Example 68, 2-(2-(3′-(Aminomethyl)-5′-fluoro-5-(pyrimidin-2-ylmethoxy)-[1,1′-biphenyl]-3-ylcarboxamido)phenyl)acetic acid] returned an IC50 of 20 nM. For `Cn1ccc(COc2cc(C(=O)Nc3ccccc3CC(=O)O)cc(-c3cc(F)cc(CN)c3)c2)n1` [Example 69, 2-(2-(3′-(Aminomethyl)-5′-fluoro-5-((1-methyl-1H-pyrazol-3-yl)methoxy)-[1,1′-biphenyl]-3-ylcarboxamido)phenyl)acetic acid], the IC50 stood at 26 nM. The compound `CNC(=O)c1cc(COc2cc(C(=O)Nc3ccccc3CC(=O)O)cc(-c3cccc(CN)c3)c2)ccn1` [Example 70, 2-(2-(3′-(Aminomethyl)-5-((2-(methylcarbamoyl)pyridin-4-yl)methoxy)-[1,1′-biphenyl]-3-ylcarboxamido)phenyl)acetic acid] yielded an IC50 of 11 nM.

`CNC(=O)c1cc(COc2cc(C(=O)Nc3ccccc3CC(=O)O)cc(-c3cc(F)cc(CN)c3)c2)ccn1` [Example 71, 2-(2-(3′-(Aminomethyl)-5′-fluoro-5-((2-(methylcarbamoyl)pyridin-4-yl)methoxy)-[1,1′-biphenyl]-3-ylcarboxamido)phenyl)acetic acid] displayed a concentration for half-maximal inhibition (IC50) of 9 nM. In the case of `COCCOc1cc(C(=O)Nc2ccccc2CC(=O)O)cc(-c2cccc(CN)c2)c1` [Example 72-B, 2-(2-(3′-(Aminomethyl)-5-(2-methoxyethoxy)-[1,1′-biphenyl]-3-ylcarboxamido)phenyl)acetic acid] it was 58 nM; in that of `COCCOc1cc(C(=O)Nc2ccccc2CC(=O)O)cc(-c2cc(F)cc(CN)c2)c1` [Example 73-C, 2-(2-(3′-(Aminomethyl)-5′-fluoro-5-(2-methoxyethoxy)-[1,1′-biphenyl]-3-ylcarboxamido)phenyl)acetic acid], 22 nM. In the case of `NCc1cccc(-c2cc(OC[C@H]3CCCO3)cc(C(=O)Nc3ccccc3CC(=O)O)c2)c1` [Example 74-D, (R)-2-(2-(3′-(Aminomethyl)-5-((tetrahydrofuran-2-yl)methoxy)-[1,1′-biphenyl]-3-ylcarboxamido)phenyl)acetic acid] it was 9 nM. In the case of `N[C@H](CO)c1cccc(-c2cccc(COc3c(F)cccc3CC(=O)O)c2)c1` [Example 75-B, (S)-2-(2-((3′-(1-Amino-2-hydroxyethyl)-[1,1′-biphenyl]-3-yl)methoxy)-3-fluorophenyl)acetic acid] it was 26 nM. `NCc1cc(F)cc(-c2cc(OC[C@H]3CCCO3)cc(C(=O)Nc3ccccc3CC(=O)O)c2)c1` [Example 76, (R)-2-(2-(3′-(Aminomethyl)-5′-fluoro-5-((tetrahydrofuran-2-yl)methoxy)-[1,1′-biphenyl]-3-ylcarboxamido)phenyl)acetic acid] gave a 50% inhibitory concentration (IC50) of 6 nM. In the case of `NCc1cc(F)cc(-c2cc(C(=O)Nc3ccccc3CC(=O)O)cc(N3CCOCC3)c2)c1` [Example 77-B, 2-(2-(3′-(Aminomethyl)-5′-fluoro-5-morpholino-[1,1′-biphenyl]-3-ylcarboxamido)phenyl)acetic acid] it was 55 nM. The same measure for `Cn1nc(C2CC2)cc1Nc1cc(C(=O)Nc2ccccc2CC(=O)O)cc(-c2cc(F)cc(CN)c2)c1` [Example 78-B, 2-(2-(3′-(Aminomethyl)-5-((3-cyclopropyl-1-methyl-1H-pyrazol-5-yl)amino)-5′-fluoro-[1,1′-biphenyl]-3-ylcarboxamido)phenyl)acetic acid]: 22 nM; for `NCc1cc(F)cc(-c2cc(NCC3CCOC3)cc(C(=O)Nc3ccccc3CC(=O)O)c2)c1` (centres unmarked) [Example 79-A]: 5 nM; for `NCc1cc(F)cc(-c2cc(NC3CCOC3)cc(C(=O)Nc3ccccc3CC(=O)O)c2)c1` (centres unmarked) [Example 79-B]: 9 nM. In turn, `Cn1ccc(Nc2cc(C(=O)Nc3ccccc3CC(=O)O)cc(-c3cc(F)cc(CN)c3)c2)n1` [Example 79-C] yielded an IC50 of 22 nM. In the case of `NCc1cc(F)cc(-c2cc(NC3CCOCC3)cc(C(=O)Nc3ccccc3CC(=O)O)c2)c1` [Example 79-D] it was 14 nM; in that of `NCc1cc(F)cc(-c2cc(NCC3CCOCC3)cc(C(=O)Nc3ccccc3CC(=O)O)c2)c1` [Example 79-E], 12 nM. The compound `NCc1cc(F)cc(-c2cc(NC[C@@H]3CCCO3)cc(C(=O)Nc3ccccc3CC(=O)O)c2)c1` [Example 79-F] showed an IC50 of 6 nM. The same measure for `NCc1cc(F)cc(-c2cc(Nc3ccn[nH]3)cc(C(=O)Nc3ccccc3CC(=O)O)c2)c1` [Example 79-G]: 22 nM. As for `Cc1cc(Nc2cc(C(=O)Nc3ccccc3CC(=O)O)cc(-c3cc(F)cc(CN)c3)c2)[nH]n1` [Example 79-H], the IC50 worked out at 17 nM.

As to `Cc1cc(Nc2cc(C(=O)Nc3ccccc3CC(=O)O)cc(-c3cc(F)cc(CN)c3)c2)n(C)n1` [Example 79-I], the half-maximal inhibitory concentration (IC50) turned out to be 19 nM.

`C[C@@H](N)c1cccc(-c2cc(OC[C@@H]3CCCO3)cc(C(=O)Nc3ccccc3CC(=O)O)c2)c1` [Example 80-C, 2-(2-(3′-((R)-1-Aminoethyl)-5-(((S)-tetrahydrofuran-2-yl)methoxy)-[1,1′-biphenyl]-3-ylcarboxamido)phenyl)acetic acid] yielded an IC50 of 143 nM. The compound `N[C@H](CO)c1cccc(-c2cc(OC[C@@H]3CCCO3)cc(C(=O)Nc3ccccc3CC(=O)O)c2)c1` [Example 81, 2-(2-(3′-((S)-1-Amino-2-hydroxyethyl)-5-(((S)-tetrahydrofuran-2-yl)methoxy)-[1,1′-biphenyl]-3-ylcarboxamido)phenyl)acetic acid] showed a concentration for half-maximal inhibition (IC50) of 20 nM. For the compound `N[C@H](CO)c1cccc(-c2cc(C(=O)Nc3ccccc3CC(=O)O)cc(-c3cccc([C@H](N)CO)c3)c2)c1` [Example 82-B, 2-(2-(3,3″-bis((S)-1-amino-2-hydroxyethyl)-[1,1′:3′,1″-terphenyl]-5′-ylcarboxamido)phenyl)acetic acid], the midpoint of inhibition, the IC50, lay at 19 nM. In the case of `COCCNc1cc(C(=O)Nc2ccccc2CC(=O)O)cc(-c2cccc([C@H](N)CO)c2)c1` [Example 83-D, (S)-2-(2-(3′-(1-amino-2-hydroxyethyl)-5-((2-methoxyethyl)amino)-[1,1′-biphenyl]-3-ylcarboxamido)phenyl)acetic acid] it was 22 nM; in that of `COCCNc1cc(COc2ccccc2CC(=O)O)cc(-c2cccc([C@H](N)CO)c2)c1` [Example 84, (S)-2-(2-((3′-(1-Amino-2-hydroxyethyl)-5-((2-methoxyethyl)amino)-[1,1′-biphenyl]-3-yl)methoxy)phenyl)acetic acid], 5 nM. In the case of `CCOC(=O)Cc1ccccc1NC(=O)c1cc(NC[C@H]2CCCO2)cc(-c2cc(F)cc(CN)c2)c1` [Example 85, (R)-Ethyl 2-(2-(3′-(aminomethyl)-5′-fluoro-5-(((tetrahydrofuran-2-yl)methyl)amino)-[1,1′-biphenyl]-3-ylcarboxamido)phenyl)acetate] it was 709 nM. `N[C@H](CCO)c1cccc(-c2cccc(C(=O)Nc3ccccc3CC(=O)O)c2)c1` [Example 88, (R)-2-(2-(3′-(1-Amino-3-hydroxypropyl)-[1,1′-biphenyl]-3-ylcarboxamido)phenyl)acetic acid] showed an IC50 of 958 nM. In the case of `N[C@@H](CCO)c1cccc(-c2cccc(C(=O)Nc3ccccc3CC(=O)O)c2)c1` [Example 89, (S)-2-(2-(3′-(1-Amino-3-hydroxypropyl)-[1,1′-biphenyl]-3-ylcarboxamido)phenyl)acetic acid] it was 5250 nM.

The record behind these values is patent publication US20160145247A1, “Aminomethyl-Biaryl Derivatives Complement Factor D inhibitors and uses thereof” (NOVARTIS AG, priority 2013, published 2016).
